From PubChem BioAssay AID1845204 (Molecular Pharmacology Branch, DTP, NCI, 2023)

System: HSSY-II tumor spheroid viability
Test: Anticancer human tumor HSSY-II cell line growth inhibition;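 note: spheroids exposed to compounds for seven days before reading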;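 for viability, T/C: percent of DMSO vehicle control viability so 100% = untreated level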
Conditions: spheroids with HUVEC and MSC; for IC50: curve of first compound; for viability, T/C: stronger effect = lower value
In short: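 Single agents and combinations were tested on spheroids built from tumor cells plus HUVEC and hMSC, at half-log dilutions starting at or near clinical Cmax, else 10 microM; final DMSO 0.25% (v/v).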

Cn1ncnc1[C@H]1c2n[nH]c(=O)c3cc(F)cc(c23)N[C@@H]1c1ccc(F)cc1 + COc1cc2c(cc1O)CCNC21CSC2c3c(OC(C)=O)c(C)c4c(c3C(COC1=O)N1C(O)C3Cc5cc(C)c(OC)c(O)c5C(C21)N3C)OCO4
IC50 (second compound 30 pM): 36.7 nM
IC50 (second compound 94.9 pM): < 9.49 nM
IC50 (second compound 0.0003 µM): < 9.49 nM
IC50 (second compound 0.000949 µM): < 9.49 nM
IC50 (second compound 0.003 µM): < 9.49 nM
viability, T/C (second compound 30 pM, first compound 0.00949 µM): 65.3%
viability, T/C (second compound 30 pM, first compound 0.03 µM): 53.8%
viability, T/C (second compound 30 pM, first compound 0.0949 µM): 32%
viability, T/C (second compound 30 pM, first compound 0.3 µM): 14.4%
viability, T/C (second compound 30 pM, first compound 0.949 µM): 9.09%
viability, T/C (second compound 30 pM, first compound 3 µM): 6.64%
viability, T/C (second compound 94.9 pM, first compound 0.00949 µM): 32.6%
viability, T/C (second compound 94.9 pM, first compound 0.03 µM): 25.6%
viability, T/C (second compound 94.9 pM, first compound 0.0949 µM): 15.6%
viability, T/C (second compound 94.9 pM, first compound 0.3 µM): 10.5%
viability, T/C (second compound 94.9 pM, first compound 0.949 µM): 8.55%
viability, T/C (second compound 94.9 pM, first compound 3 µM): 6.28%
viability, T/C (second compound 0.0003 µM, first compound 0.00949 µM): 8.74%
viability, T/C (second compound 0.0003 µM, first compound 0.03 µM): 9.03%
viability, T/C (second compound 0.0003 µM, first compound 0.0949 µM): 8.23%
viability, T/C (second compound 0.0003 µM, first compound 0.3 µM): 7.73%
viability, T/C (second compound 0.0003 µM, first compound 0.949 µM): 6.35%
viability, T/C (second compound 0.0003 µM, first compound 3 µM): 3.6%
viability, T/C (second compound 0.000949 µM, first compound 0.00949 µM): 2.25%
viability, T/C (second compound 0.000949 µM, first compound 0.03 µM): 1.71%
viability, T/C (second compound 0.000949 µM, first compound 0.0949 µM): 1.81%
viability, T/C (second compound 0.000949 µM, first compound 0.3 µM): 2.07%
viability, T/C (second compound 0.000949 µM, first compound 0.949 µM): 0.53%
viability, T/C (second compound 0.000949 µM, first compound 3 µM): 0.15%
viability, T/C (second compound 0.003 µM, first compound 0.00949 µM): 0.2%
viability, T/C (second compound 0.003 µM, first compound 0.03 µM): 0.25%
viability, T/C (second compound 0.003 µM, first compound 0.0949 µM): 0.2%
viability, T/C (second compound 0.003 µM, first compound 0.3 µM): 0.15%
viability, T/C (second compound 0.003 µM, first compound 0.949 µM): 0.14%
viability, T/C (second compound 0.003 µM, first compound 3 µM): 0.26%
